Assay results taken from patent EP1142587A1 (priority 1998, dated 2000).

Experiments:
[1] = target: T1, dopamine D2 receptor (Rattus norvegicus, UniProt P61169); experiment: biochemical; format: binding
T1 construct: A membrane fraction obtained from rat corpus striatum was prepared as a membrane fraction of a dopamine D2 receptor; from tissue; host or cells: rat corpus striatum membrane fraction

[2] = test system: Mice; conditions: mouse, in vivo, ip
[3] = test system: mouse; experiment: Anti-dopamine action against apomorphine-induced climbing behavior; format: in vivo; conditions: for Wall climbing behavior: apomorphine (2mg/kg, s.c.) + test substance; for ED50: sc, apomorphine 2mg/kg s.c. 10 minutes after test drug, climbing measured from 20 minutes after apomorphine for 1 minute, read-out: ED50 value regarding anti-dopamine action
Source text: The term "a compound having dopamine D2 receptor antagonist activity" is used herein to mean a compound showing a binding affinity in a D2 receptor membrane binding test, and also showing inhibiting effect to apomorphine-induced climbing behavior.
The administration of dopamine receptor agonists, apomorphine induces a continual climbing behavior in mice. A test for competitive action against this effect is generally used as a method for detecting the dopamine receptor antagonist. A mouse was put into a cylindrical wire gauze (10 cm diameter × 14cm height) and allowed to habituate itself with the circumstances for about 1 hour. Apomorphine (2mg/kg, s.c.) was administered to the mouse at 10 minutes after the administration of the test drug, and from 20 minutes after the administration of apomorphine, its climbing behavior (which means the period during which all four legs of the mouse have left from the ground) was measured for 1 minute. Furthermore, a sigmoid curve was determined from dose response by a method of least squares, and ED50 value was calculated.

[4] = test system: Sprague-Dawley rats; conditions: rat, in vivo
[5] = test system: ddY male mice; experiment: animal or person; format: in vivo; conditions: Mus musculus, ip, 0.5 h, read-out: ED50 value regarding analgetic effect

T1 sequence (P61169 whole entry): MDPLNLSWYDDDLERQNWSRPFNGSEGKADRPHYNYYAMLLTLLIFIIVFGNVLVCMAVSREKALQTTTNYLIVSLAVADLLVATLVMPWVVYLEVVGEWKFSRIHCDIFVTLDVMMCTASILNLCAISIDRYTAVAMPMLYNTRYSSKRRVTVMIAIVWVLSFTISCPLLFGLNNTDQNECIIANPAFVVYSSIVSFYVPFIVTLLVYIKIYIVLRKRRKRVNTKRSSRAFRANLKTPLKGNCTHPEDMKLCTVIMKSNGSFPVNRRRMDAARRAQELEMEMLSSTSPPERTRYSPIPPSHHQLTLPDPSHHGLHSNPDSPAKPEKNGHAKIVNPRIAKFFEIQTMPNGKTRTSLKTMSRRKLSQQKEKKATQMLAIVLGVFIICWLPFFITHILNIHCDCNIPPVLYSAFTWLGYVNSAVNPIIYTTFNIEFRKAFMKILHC

| Compound | Ki [1] | effect on locomotor activity [2] | Wall climbing behavior [3] | ED50 [3] | position palatability (psychological dependence / aversive effect) [4] | ED50 [5] |
| --- | --- | --- | --- | --- | --- | --- |
| O=C1OC2(CCN(Cc3ccc(Cl)nc3)CC2)c2c1ccc1ccccc21 [Example 2, 1'-(6-chloro-3-pyridyl)methyl(benzo[g]1,3-dihydroisobenzofuran-1-spiro-4'-piperidine)-3-on] | 532 nM | – | – | – | – | – |
| O=C1NCN(c2ccccc2)C12CCN(Cc1cccnc1)CC2 [Example 17, 1'-(3-pyridyl)methyl-spiroimidazolidine-4,4'-piperidine-3-phenyl-5-on] | 457 nM | no effect on locomotor activity | – | – | – | – |
| O=C1OC2(CCN(Cc3ccc(Cl)nc3)CC2)c2cc3ccccc3cc21 [Example 3, 1'-(6-chloro-3-pyridyl)methyl(benzo[f]1,3-dihydroisobenzofuran-1-spiro-4'-piperidine)-3-on] | 1590 nM | – | – | – | – | – |
| O=C1OC2(CCN(Cc3ccccc3)CC2)c2c1ccc1ccccc21 [Example 11, 1'-benzyl(benzo[g]1,3-dihydroisobenzofuran-1-spiro-4'-piperidine)-3-on] | 177 nM | – | – | – | – | – |
| Cc1ccc(CN2CCC3(CC2)C(=O)NCN3c2ccccc2)cc1 [Example 23, 1'-(4-methylbenzyl)-spiroimidazolidine-4,4'-piperidine-3-phenyl-5-on] | 52 nM | no effect on locomotor activity | inhibitory effect | 9.5 mg/kg | – | – |
| O=C1OC2(CCN(Cc3ccccc3)CC2)c2ccccc21 [Reference example 15, 1'-benzyl-spiro[benzodihydrofuran-1(3H),4'-piperidine)-3-on, reference compound] | > 1000 nM | – | – | – | – | – |
| N=C1OC2(CCN(Cc3ccc(Cl)nc3)CC2)c2c1ccc1ccccc21 [Example 1, 1'-(6-chloro-3-pyridyl)methyl(benzo[g]1,3-dihydroisobenzofuran-1-spiro-4'-piperidine)-3-imine] | 230 nM | – | – | – | – | – |
| CN1CC[C@]23c4c5ccc(O)c4O[C@H]2[C@@H](O)C=C[C@H]3[C@H]1C5 [Morphine, reference compound] | – | strong locomotor activity promoting effect | – | – | strong rewarding effect | 13.7 mg/kg |
| O=C1NCN(c2ccccc2)C12CCN(Cc1ccc(Cl)nc1)CC2 [Example 15, 1'-(6-chloro-3-pyridyl)methyl-spiroimidazolidine-4,4'-piperidine-3-phenyl-5-on] | 3.6 nM | no effect on locomotor activity | inhibitory effect | 1.22 mg/kg | – | – |
| O=C1NCN(c2ccccc2)C12CCN(Cc1ccc(Br)cc1)CC2 [Example 18, 1'-(4-bromobenzyl)-spiroimidazolidine-4,4'-piperidine-3-phenyl-5-on] | 5.7 nM | no effect on locomotor activity | inhibitory effect | 1.05 mg/kg | – | – |
| Cc1ccc(CN2CCC3(CC2)C(=O)NCN3c2ccccc2)cn1 [Example 16, 1'-(6-methyl-3-pyridyl)methyl-spiroimidazolidine-4,4'-piperidine-3-phenyl-5-on] | 17 nM | no effect on locomotor activity | inhibitory effect | 11.9 mg/kg | neither psychological dependence nor aversive effects | – |
| COc1ccc(CN2CCC3(CC2)C(=O)NCN3c2ccccc2)cc1 [Example 14, 1'-(4-methoxybenzyl)-spiroimidazolidine-4,4'-piperidine-3-phenyl-5-on] | 20 nM | no effect on locomotor activity | inhibitory effect | 2.22 mg/kg | neither psychological dependence nor aversive effects | – |
